In PMC4506051, “Pharmacokinetic Profiles of Active Ingredients and Its Metabolites Derived from Rikkunshito, a Ghrelin Enhancer, in Healthy Japanese Volunteers: A Cross-Over, Randomized Study” (PLoS ONE, 2015):

Tests used:
[1] = system: butyrylcholinesterase; details: cited from earlier work
[2] = Method validation: short-term stability in plasma
[3] = Method validation: stability in standard, stock and working solution; details: for Stock solution stability, RR: 0.1 mg/mL (naringenin 0.5 mg/mL); for Short-term stability of standard solution, RR: at room temperature for 24 h
[4] = Dose proportionality (linearity) test by power model for C max and AUC0-last; details: for Dose proportionality test using power model, Inference: linear when 90% CI of β included 1, CIlower ≥0.8, and CIupper ≤1.25; for Dose proportionality test using power model, β: rikkunshito 2.5, 5.0 or 7.5 g
Protocol: The dose proportionality was analyzed via a power model [21, 22]. […] Evaluation of linearity of the dosage-exposure relationship was conducted with Phoenix WinNonlin and SAS 9.2 (SAS Institute, Inc., Cary, NC).

[5] = Method validation: freeze-thaw stability in plasma
[6] = Stability of ingredients in gastric pH solution (pH 1.2, 37°C); type: physicochemical; details: for Stability in gastric pH solution, Quantitative value: rikkunshito in acidic solution (pH 1.2) at 37°C
Protocol: Rikkunshito gradually dissolved in acidic solution (pH 1.2) at 37°C, and the concentration of atractylodin after adding 0.25, 0.5, 1, and 2 h was measured by gas chromatography–mass spectrometry.

[7] = Method validation: long-term stability in plasma
[8] = Formation of ingredients derived from rikkunshito in formulation, blood, and urine (S11 Table summary); details: after rikkunshito administration, per ingredient in the formulation; for Formation of ingredients: form found in Urine: BQL = below the quantification limit
[9] = system: ghrelin receptor (GHS-R); details: cited from earlier work
[10] = Exploratory trial: amount of rikkunshito ingredients in urine; type: in vivo, human; details: mean ± S.D., n = 4
Outline: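 LC–MS/MS measurement of rikkunshito constituents in urine fractions (pre-dose, 0–4 h, 4–8 h) following one 7.5 g oral dose. Other constituents: enzymatic deglucuronidation at 37 °C for 2 h, then SPE cleanup with atractylenolide III or digoxin as IS; synephrine: erythromycin IS, Ostro plate.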

For C=C(CC[C@@H](C(=O)O)[C@H]1[C@H](O)C[C@@]2(C)C3=C(CC[C@]12C)[C@@]1(C)CC[C@H](OC(C)=O)C(C)(C)[C@@H]1CC3)C(C)C [Pachymic acid], the Butyrylcholinesterase inhibition [1] is listed as “inhibit butyrylcholinesterase”, the “Known pharmacology activities: ghrelin metabolizing enzyme” value [1] is listed as “Ghrelin metabolizing enzyme inhibitory effect [17]” and the “Short-term stability, RR” value ([2]; room temperature 25 h, higher concentration (pachymic acid 800, heptamethoxyflavone 320 pg/mL)) is listed as 93.8%. For the same molecule, the “Short-term stability, RR” value ([2]; room temperature 25 h, lower concentration (pachymic acid 20, heptamethoxyflavone 8 pg/mL)) was 85.9%, the “Short-term stability, RR” value ([2]; room temperature (1°C to 30°C) 4 h, higher concentration (800 / 320 / 4000 pg/mL)) was 95.1% and the “Short-term stability, RR” value ([2]; room temperature (1°C to 30°C) 4 h, lower concentration (20 / 8 / 100 pg/mL)) was 95.8%. For the same molecule, the “Working solution stability, RR” value ([3]; refrigerator 53 days, higher concentration (pachymic acid 10, heptamethoxyflavone 4, naringenin 50 ng/mL)) was 101.1%, the “Working solution stability, RR” value ([3]; refrigerator 53 days, lower concentration (pachymic acid 0.1, heptamethoxyflavone 0.04, naringenin 0.5 ng/mL)) was 109.1% and the “Working solution stability, RR” value ([3]; refrigerator 128 days, higher concentration (10 / 4 / 50 ng/mL)) was 113.2%. The “Working solution stability, RR” value ([3]; refrigerator 128 days, lower concentration (0.1 / 0.04 / 0.5 ng/mL)) was 102.1%, the “Stock solution stability, RR” value ([3]; refrigerator (1°C to 8°C) 54 days) was 54 days: 101.7% and the “Stock solution stability, RR” value ([3]; refrigerator (1°C to 8°C) 129 days) was 129 days: 110.1%. The “Dose proportionality test using power model, Inference” value (shortened to “Dose proportionality test … Inference”) ([4]; AUC0-last) was “Nonlinear”, the “Dose proportionality test using power model, β” value (shortened to “Dose proportionality test … β”) ([4]; AUC0-last) was 1.39 and the “Dose proportionality test … Inference” value ([4]; Cmax) was “Nonlinear”. For the same molecule, the “Dose proportionality test … β” value ([4]; Cmax) was 0.856, the “Freeze-thaw stability, RR” value ([5]; −30°C to −10°C, 3 cycles, higher concentration (800 / 320 / 4000 pg/mL)) was 114.0% and the “Freeze-thaw stability, RR” value ([5]; −30°C to −10°C, 3 cycles, lower concentration (20 / 8 / 100 pg/mL)) was 108.8%. The “Stability in gastric pH solution, Quantitative value” (shortened to “Stability in gastric pH solution”) ([6]; 0.5 h) was 40.2 ng/mL, the “Stability in gastric pH solution” value ([6]; 1 h) was 46.5 ng/mL and the “Stability in gastric pH solution” value ([6]; 2 h) was 28.3 ng/mL. The “Long-term stability, RR” value ([7]; freezer −30°C to −10°C, 13 days, lower concentration (pachymic acid 20, heptamethoxyflavone 8 pg/mL)) was 110.9%, the “Long-term stability, RR” value ([7]; freezer, 13 days, higher concentration (pachymic acid 800, heptamethoxyflavone 320 pg/mL)) was 113.9% and the “Long-term stability, RR” value ([7]; freezer, 39 days, higher concentration (800 / 320 pg/mL)) was 107.6%. For the same molecule, the “Long-term stability, RR” value ([7]; freezer, 39 days, lower concentration (20 / 8 pg/mL)) was 104.1%, the “Long-term stability, RR” value ([7]; freezer, 228 days, higher concentration (800 / 320 pg/mL)) was 92.5% and the “Long-term stability, RR” value ([7]; freezer, 228 days, lower concentration (20 / 8 pg/mL)) was 89.6%. For the same molecule, the “Formation of ingredients: form found in Blood” value [8] was “Pachymic acid” and the “Formation of ingredients: form found in Urine” value [8] was “BQL”.

For C/C=C/C#CC#C/C=C/c1ccco1 [Atractylodin], the “Short-term stability, RR” value ([2]; atractylodin 0.600 ng/mL, deep freezer (−90.4°C to −69.5°C) for 4 h) was 95.6%, the “Short-term stability, RR” value ([2]; atractylodin 0.600 ng/mL, deep freezer for 24 h) was 101.5% and the “Short-term stability, RR” value ([2]; atractylodin 16.0 ng/mL, deep freezer (−90.4°C to −69.5°C) for 4 h) was 101.9%. The “Short-term stability, RR” value ([2]; atractylodin 16.0 ng/mL, deep freezer for 24 h) was 102.9%, the “Short-term stability of standard solution, RR” value ([3]; atractylodin 1.00 ng/mL) was 104.6% and the “Short-term stability of standard solution, RR” value ([3]; atractylodin 5000 ng/mL) was 106.7%. The “Known pharmacology activities: ghrelin signal” value [9] was “Ghrelin signal enhancement effect [1]”, the “Dose proportionality test … Inference” value ([4]; AUC0-last) was “Nonlinear” and the “Dose proportionality test … β” value ([4]; AUC0-last) was 1.60. The “Dose proportionality test … Inference” value ([4]; Cmax) was “Linear^a”, the “Dose proportionality test … β” value ([4]; Cmax) was 0.988 and the “Freeze-thaw stability, RR” value ([5]; atractylodin 0.600 ng/mL, deep freezer, 2 cycles) was 109.3%. For the same molecule, the “Freeze-thaw stability, RR” value ([5]; atractylodin 0.600 ng/mL, deep freezer, 3 cycles) was 115.1%, the “Freeze-thaw stability, RR” value ([5]; atractylodin 16.0 ng/mL, deep freezer, 2 cycles) was 122.6% and the “Freeze-thaw stability, RR” value ([5]; atractylodin 16.0 ng/mL, deep freezer, 3 cycles) was 133.6%. The “Stability in a solution with the same pH as that in the stomach” value ([6]; pH 1.2, 37°C, S10 Table) was “stable”, the “Stability in gastric pH solution” value ([6]; 0.5 h) was 9.03 ng/mL and the “Stability in gastric pH solution” value ([6]; 1 h) was 9.72 ng/mL. The “Stability in gastric pH solution” value ([6]; 2 h) was 8.13 ng/mL, the “Long-term stability, RR” value ([7]; atractylodin 0.600 ng/mL, deep freezer, 15 days) was 98.4% and the “Long-term stability, RR” value ([7]; atractylodin 0.600 ng/mL, deep freezer, 29 days) was 88.7%. The “Long-term stability, RR” value ([7]; atractylodin 0.600 ng/mL, deep freezer, 57 days) was 101.4%, the “Long-term stability, RR” value ([7]; atractylodin 0.600 ng/mL, deep freezer, 169 days) was 95.2% and the “Long-term stability, RR” value ([7]; atractylodin 16.0 ng/mL, deep freezer, 15 days) was 98.6%. The “Long-term stability, RR” value ([7]; atractylodin 16.0 ng/mL, deep freezer, 29 days) was 98.6%, the “Long-term stability, RR” value ([7]; atractylodin 16.0 ng/mL, deep freezer, 57 days) was 109.4 and the “Long-term stability, RR” value ([7]; atractylodin 16.0 ng/mL, deep freezer, 169 days) was 102.8%. The “Amount in urine, 0–4 h” value ([10]; 0–4 h after single oral rikkunshito 7.5 g) was 75.8 ± 152 ng, the “Amount in urine, 4–8 h” value ([10]; 4–8 h after single oral rikkunshito 7.5 g) was “BQL” and the “Amount in urine, Pre” value ([10]; preadministration (between dinner and bedtime)) was “BQL”. For the same molecule, the “Formation of ingredients: form found in Urine” value [8] was “Atractylodin”.
